Calls of active or inactive are those of the source. For most assays here, no stated cut-off is given here; in the data, actives have a measured EC50 and inactives only a lower limit.
Key:
Protein skinhead-1 = target: T1, Protein skinhead-1 (Caenorhabditis elegans, UniProt P34707); format: functional
T1 sequence (P34707 whole entry): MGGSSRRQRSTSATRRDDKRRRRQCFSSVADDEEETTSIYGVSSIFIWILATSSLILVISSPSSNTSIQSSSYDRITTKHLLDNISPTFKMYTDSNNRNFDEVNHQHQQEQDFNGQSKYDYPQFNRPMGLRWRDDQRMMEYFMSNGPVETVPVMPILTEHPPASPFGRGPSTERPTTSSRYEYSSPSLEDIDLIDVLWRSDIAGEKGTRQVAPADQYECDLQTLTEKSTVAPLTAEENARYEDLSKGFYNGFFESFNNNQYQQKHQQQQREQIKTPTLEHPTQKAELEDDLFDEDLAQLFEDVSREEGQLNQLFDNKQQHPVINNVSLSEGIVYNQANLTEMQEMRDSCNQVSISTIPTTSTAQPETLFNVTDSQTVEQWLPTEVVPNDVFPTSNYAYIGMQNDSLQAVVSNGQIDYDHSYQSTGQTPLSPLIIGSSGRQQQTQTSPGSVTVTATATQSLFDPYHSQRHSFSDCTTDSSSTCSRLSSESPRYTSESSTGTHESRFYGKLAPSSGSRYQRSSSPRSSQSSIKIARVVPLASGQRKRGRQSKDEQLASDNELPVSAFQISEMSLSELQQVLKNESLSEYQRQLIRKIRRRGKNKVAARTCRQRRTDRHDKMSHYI

[1] = test system: Streptococcus sp. 'group A'; assay: growth inhibition of control SK(-) GAS strain, dose response, counter-screen for streptokinase expression inhibitor project, luminescence, kanamycin, BacTiterGlo, confirmation (AID 1900); format: functional, organism-based
Streptokinase A = target: T2, Streptokinase A (Streptococcus pyogenes serotype M1, UniProt P10520); assay: S. pyogenes streptokinase expression inhibitors, potency, dose response, plasminogen activation absorbance, OD405 (AID 1914); format: functional, Streptococcus pyogenes M1 GAS;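 further: secreted streptokinase activity via plasminogen activation per viability signal from cell pellet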
T2 sequence (P10520 whole entry): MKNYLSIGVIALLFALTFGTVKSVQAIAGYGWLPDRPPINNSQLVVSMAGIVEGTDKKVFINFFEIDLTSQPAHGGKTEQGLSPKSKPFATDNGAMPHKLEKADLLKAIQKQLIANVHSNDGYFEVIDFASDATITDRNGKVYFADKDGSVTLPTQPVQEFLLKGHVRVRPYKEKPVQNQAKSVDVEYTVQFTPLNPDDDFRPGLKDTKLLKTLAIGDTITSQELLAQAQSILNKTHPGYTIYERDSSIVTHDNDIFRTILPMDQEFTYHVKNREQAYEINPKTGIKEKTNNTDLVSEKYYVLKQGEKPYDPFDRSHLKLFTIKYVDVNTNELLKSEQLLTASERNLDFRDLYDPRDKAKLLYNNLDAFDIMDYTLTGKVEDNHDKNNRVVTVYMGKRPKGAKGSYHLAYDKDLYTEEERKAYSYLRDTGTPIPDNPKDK

Streptococcus = assay: Group A Streptococcus viability loss, dose response, counter-screen for streptokinase expression inhibitor project, luminescence, BacTiterGlo (AID 1915); format: functional, organism-based;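 further: potency for reduction of bacterial viability or growth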
[2] = target: T3, RNA-binding protein pos-1 (Caenorhabditis elegans, UniProt G5EF15); assay: inhibitors of POS-1/mex-3 RNA binding, dose response, biochemical, fluorescence polarization (AID 1964);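 further: purified POS-1 fused to maltose binding protein made in E. coli; potency of compounds blocking POS-1 binding to fluorescent RNA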
T3 sequence (G5EF15 whole entry): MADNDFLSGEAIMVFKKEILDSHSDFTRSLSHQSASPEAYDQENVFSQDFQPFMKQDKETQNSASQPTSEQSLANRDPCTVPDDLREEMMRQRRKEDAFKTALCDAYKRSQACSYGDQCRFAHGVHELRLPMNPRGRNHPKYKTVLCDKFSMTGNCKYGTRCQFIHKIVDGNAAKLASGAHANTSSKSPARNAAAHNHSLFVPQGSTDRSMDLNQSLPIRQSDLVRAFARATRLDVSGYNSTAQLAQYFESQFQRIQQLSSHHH

[3] = target: T4, Zinc finger protein mex-5 (Caenorhabditis elegans, UniProt Q9XUB2); assay: MEX-5/TCR-2 RNA interaction inhibitors, dose response, biochemical, C. elegans, fluorescence polarization (AID 1960)
T4 sequence (Q9XUB2 whole entry): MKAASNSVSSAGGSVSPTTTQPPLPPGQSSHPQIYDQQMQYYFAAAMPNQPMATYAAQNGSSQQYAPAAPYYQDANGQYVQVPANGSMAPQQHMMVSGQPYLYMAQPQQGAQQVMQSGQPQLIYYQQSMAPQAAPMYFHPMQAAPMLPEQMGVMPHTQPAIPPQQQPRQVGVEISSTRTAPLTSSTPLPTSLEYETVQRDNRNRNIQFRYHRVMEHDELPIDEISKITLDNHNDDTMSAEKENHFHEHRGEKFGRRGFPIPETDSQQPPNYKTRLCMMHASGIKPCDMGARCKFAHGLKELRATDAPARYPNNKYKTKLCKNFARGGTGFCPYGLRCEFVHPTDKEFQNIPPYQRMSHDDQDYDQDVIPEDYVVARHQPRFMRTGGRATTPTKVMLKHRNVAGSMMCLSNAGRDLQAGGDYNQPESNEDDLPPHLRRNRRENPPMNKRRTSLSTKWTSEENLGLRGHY

[4] = target: T5, Carboxy-terminal domain RNA polymerase II polypeptide A small phosphatase 1 (Homo sapiens, UniProt Q9GZU7); assay: inhibitors of CTDSP1, concentration-response testing, biochemical assay, absorbance-based, actives from ultra-high-throughput screening (AID 540297); format: functional
T5 sequence (Q9GZU7 whole entry): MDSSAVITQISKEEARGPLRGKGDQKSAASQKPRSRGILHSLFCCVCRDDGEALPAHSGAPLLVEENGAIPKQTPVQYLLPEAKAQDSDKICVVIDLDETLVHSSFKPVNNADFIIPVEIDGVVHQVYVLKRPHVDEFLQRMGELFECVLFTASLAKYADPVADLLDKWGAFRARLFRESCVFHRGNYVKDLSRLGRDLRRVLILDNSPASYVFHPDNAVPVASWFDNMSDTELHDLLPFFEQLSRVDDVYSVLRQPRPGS

[5] = inhibitors of intracellular T. cruzi replication, confirmation, NIH3T3 host cells, beta-gal luminescence (AID 2044); format: functional, cell-based;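 further: intracellular parasites grown in NIH/3T3 mouse fibroblasts as host cells; luminescent beta-galactosidase reporter signal from transgenic T. cruzi replicating inside host cells; inhibitors lower the luminescence signal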
[6] = cytotoxicity toward NIH3T3 fibroblasts, dose response, counter-screen, cell-based, ATP luminescence, mouse fibroblasts (AID 2010); format: functional;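 further: cells exposed to compound for about 90 hours before reading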
BJ [7] = assay: cytotoxicity toward BJ-TERT fibroblasts, dose response, cell-based, RAS-independent, luminescence (AID 1933); format: functional; details: Homo sapiens
BJ [8] = assay: cells; format: functional, cell-based; details: Homo sapiens
BJ [9] = assay: cytotoxicity toward BJ-TERT-LT-ST fibroblasts, dose response, cell-based, RAS-independent, luminescence (AID 1935); format: functional; details: Homo sapiens;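 further: BJ fibroblasts immortalized with TERT plus LT and ST oncogenes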
[10] = cytotoxicity toward DRD oncogenic fibroblasts, dose response, cell-based, non-viral oncogenic, luminescence (AID 1934); format: functional; details: Homo sapiens
[11] = Luminescence Cell-Based Dose Confirmation HTS to Identify Activators of 5'UTR Stem-Loop Driven Alpha-Synuclein mRNA Translation in H4 Neuroglioblastoma Cells. [Related pubchem assays: 1829 (Project Summary), 1814 (Primary HTS)]; format: functional
[12] = Luminescence Cell-Based Dose Response HTS to Identify Activators of Luciferase Translation or Activity in H4 […] Cells. [Related pubchem assays: 1829 (Project Summary), 1814 (Primary HTS)]; format: functional
H4 = assay: Luminescence Cell-Based Dose Response HTS to Identify Activators of 5'UTR Stem-Loop Driven Prion Protein mRNA Translation in H4 Neuroglioblastoma Cells. [Related pubchem assays: 1829 (Project Summary), 1814 (Primary HTS)]; format: functional; details: Homo sapiens

**Q.** With `c1ccc(-c2ccc(-c3ccncn3)cc2)cc1` as the compound, how does the IC50 (Protein skinhead-1) read?
**A.** The IC50 was 15.2 µM (active).

**Q.** What does the source list for `CCOc1ccc2nc(NC(=O)CN3CCC(n4nnc5cc(C(F)(F)F)ccc54)CC3)sc2c1`?
**A.** EC50 [1]: 68.6 µM (active); EC50 (Streptokinase A): > 150 µM (not active); EC50 (Streptococcus): > 150 µM (not active); IC50 (Protein skinhead-1): > 100 µM (inactive)

**Q.** With `Cc1ccc(NC(=S)NC(=O)C2CC2)c(C)c1` as the compound, how does the IC50 (Protein skinhead-1) read?
**A.** The IC50 was > 100 µM (inactive).

**Q.** Which IC50 (Protein skinhead-1) does the source give for `CCOC(=O)N1CCN(C(=O)Nc2ccc(Cl)cc2)CC1` here?
**A.** The IC50 was > 100 µM (inactive).

**Q.** Which results are given for `CC(C)(C)OC(=O)NCCCC1=CC2=CC(=O)C(C)(OC(=O)c3ccc(Cl)nc3)C(=O)C2=CO1` (centres undefined)?
**A.** EC50 [2]: 17.2 µM (active); EC50 [3]: 20 µM (active)

**Q.** Which results are given for `O=C(NCCF)C1Nc2ccc(OC(F)(F)F)cc2C2C=CCC12` (centres undefined)?
**A.** EC50 [2]: > 300 µM (not active); EC50 [3]: > 300 µM (not active)

**Q.** Which IC50 [4] does the source give for `Cc1ccc2[nH]c(/C(C#N)=C/c3ccc(-c4cccc([N+](=O)[O-])c4)o3)nc2c1` here?
**A.** The IC50 was 6.06 µM (active).

**Q.** For `N=c1c(S(=O)(=O)c2ccc(Cl)cc2)cc2c(=O)n3ccccc3nc2n1CCc1ccccc1`, which EC50 [2] is on record?
**A.** Its EC50 is > 300 µM (inconclusive).

**Q.** And the EC50 [3]?
**A.** The EC50 was 1.39 µM (active).

**Q.** What about the EC50 [5] of the same compound?
**A.** The EC50 was 0.377 µM (active).

**Q.** And the EC50 [6]?
**A.** The EC50 was > 60 µM (not active).

**Q.** With `O=C(O)c1ccc(Nc2ccc([N+](=O)[O-])c3nonc23)cc1` as the compound, how does the IC50 (Protein skinhead-1) read?
**A.** Its IC50 is 48.5 µM (active).

**Q.** For `C=C1[C@@H](C)C2[C@H](Cc3ccccc3)NC(=O)[C@]23OC(=O)CC[C@H](O)CCC[C@H](C)C/C=C/[C@H]3[C@@H]1O` (some centres undefined), which EC50 (BJ [7]) is on record?
**A.** Its EC50 is 8.36 µM (inconclusive).

**Q.** What about the EC50 (BJ [8]) of the same compound?
**A.** The EC50 was > 150 µM (not active).

**Q.** And the EC50 (BJ [9])?
**A.** Its EC50 is 17.2 µM (active).

**Q.** What about the EC50 [10] of the same compound?
**A.** Its EC50 is 12.2 µM (inconclusive).

**Q.** For `Cc1nc([N+](=O)[O-])c(Br)n1CC(=O)c1cccc([N+](=O)[O-])c1`, which EC50 (BJ [7]) is on record?
**A.** The EC50 was > 150 µM (not active).

**Q.** And the EC50 (BJ [8])?
**A.** Its EC50 is > 150 µM (not active).

**Q.** What about the EC50 (BJ [9]) of the same compound?
**A.** The EC50 was > 150 µM (inconclusive).

**Q.** And the EC50 [10]?
**A.** Its EC50 is > 150 µM (not active).

**Q.** Which results are given for `CCC1(C)Cc2ccccc2-c2nc(NCCO)n(-c3ccc(C)cc3)c(=O)c21` (centres undefined)?
**A.** EC50 [11]: > 120 µM (not active); EC50 [12]: > 120 µM (not active); EC50 (H4): > 120 µM (not active); IC50 (Protein skinhead-1): > 100 µM (inactive)
